Measured values as given in patent US20150208649A1, “NOVEL COMPOSITIONS COMPRISING P-HYDROXYBENZYLAMINE” (DSM IP ASSETS B.V., priority 2012, published 2015).
Converted amounts (≈) assume the structure as drawn.

Legend:
Assay in all cases: MIC, agar dilution method according to DIN 58 940
Format in all cases: cell-based
[1] = test system: Candida albicans (C. albicans) ATCC 10231; settings: for MIC mix: 78 h; for ratio [MIC (single)/(MIC (mixture)]): >1 indicates a synergistic effect; for MIC: Candida albicans, ATCC10231, single compound
Procedure: (§1) The antimicrobial activity was assessed by determination of the Minimum Inhibitory Concentration (MIC) using the agar dilution method according to DIN 58 940 at the Labor L+SAG, D-Bad Bocklet-Grossenbrach.
(§2) Culture plates with a diameter of 5.5 cm were prepared with fresh, kept liquid (50° C.) Mueller-Hinton Agar (double concentrated, Merck 1.05437)/aqua purificata comprising the compound/compound mixtures in the concentrations indicated in Table 1 according to standard methods. After solidifying and drying (about 1 h at 36° C.), the culture plates were inoculated with 1 μl of a suspension of the respective microorganism with the colony forming unit as outlined in table 1. The inoculated plates were then incubated at 36° C. The MIC's (i.e. the concentrations where still no growth could be observed) were determined after 18 h for E. coli, P. aeruginosa and S. aureus; after 48 h for P. acnes and after 78 h for A. brasiliensis and C. albicans. Per sample two culture plates were prepared. As control incubated and non-incubated cultures were used.
(§3) The suspensions of the microorganisms No. 1-4 were prepared by homogeneous suspension of 3-5 colonies of the same morphology in physiological NaCl-solution. The suspensions were adjusted such, that the haze corresponded to the Mac Farland standard 1.0 (about 3.0*10^8 KBE*/ml). For the preparation of the suspensions of the microorganisms 5 and 6, the microorganisms have been taken with a sterile swab and diluted in an amount of physiological NaCl solution such, that the haze corresponded to the Mac Farland standard 1.0. Afterwards the suspensions of the microorganisms 1 and 3-6 have been further diluted with physiological NaCl-solution in a ratio of 1:10. The colony count was determined using a spiral plater system (see table 2).

[2] = test system: Aspergillus brasiliensis (A. brasiliensis) ATCC 16404; settings: for MIC mix: 78 h; for ratio [MIC (single)/(MIC (mixture)]): >1 indicates a synergistic effect; for MIC: Aspergillus brasiliensis, ATCC16404, single compound
Procedure: as §1, §2, §3

[3] = test system: Staphylococcus aureus (S. aureus) ATCC 6538; settings: for MIC mix: 18 h; for ratio [MIC (single)/(MIC (mixture)]): >1 indicates a synergistic effect; for MIC: Staphylococcus aureus, ATCC6538, single compound
Procedure: as §1, §2, §3

[4] = test system: Propionibacterium acnes (P. acnes) ATCC 11828; settings: for MIC: Cutibacterium acnes, ATCC11828, single compound; for MIC mix: 48 h; for ratio [MIC (single)/(MIC (mixture)]): >1 indicates a synergistic effect
Procedure: as §1, §2, §3

[5] = test system: Escherichia coli (E. coli) ATCC 8739; settings: for MIC mix: 18 h; for ratio [MIC (single)/(MIC (mixture)]): >1 indicates a synergistic effect; for MIC: Escherichia coli, ATCC8739, single compound
Procedure: as §1, §2, §3

[6] = test system: Pseudomonas aeruginosa (P. aeruginosa) ATCC 9027; settings: for MIC mix: 18 h; for ratio [MIC (single)/(MIC (mixture)]): >1 indicates a synergistic effect; for MIC: Pseudomonas aeruginosa, ATCC9027, single compound
Procedure: as §1, §2, §3

[7] = concentration of the component in mixture pHBA/MI
[8] = single compound, 78 h at 36° C.
[9] = single compound, 18 h at 36° C.
[10] = concentration of the component in mixture pHBA/MP
[11] = concentration of the component in mixture pHBA/PE

Cn1sccc1=O [MI, Methylisothiazolinone, reference compound]
MIC mix [1, 7]: 20 µg/mL (≈ 0.174 mM) | ratio [MIC (single)/(MIC (mixture)]) ([1]; mixture pHBA/MI): 1.50 | MIC single [1, 8]: 30 µg/mL (≈ 0.261 mM) | MIC mix [2, 7]: 20 µg/mL (≈ 0.174 mM) | ratio [MIC (single)/(MIC (mixture)]) ([2]; mixture pHBA/MI): 1.50 | MIC single [2, 8]: 30 µg/mL (≈ 0.261 mM) | MIC mix [3, 7]: 40 µg/mL (≈ 0.347 mM) | ratio [MIC (single)/(MIC (mixture)]) ([3]; mixture pHBA/MI): 1.75 | MIC single [3, 9]: 70 µg/mL (≈ 0.608 mM) | MIC single ([4]; single compound, 48 h at 36° C.): 30 µg/mL (≈ 0.261 mM) | MIC mix [5, 7]: 20 µg/mL (≈ 0.174 mM) | ratio [MIC (single)/(MIC (mixture)]) ([5]; mixture pHBA/MI): 1.00 | MIC single [5, 9]: 20 µg/mL (≈ 0.174 mM) | MIC mix [6, 7]: <10 µg/mL | ratio [MIC (single)/(MIC (mixture)]) ([6]; mixture pHBA/MI): >100 | MIC single [6, 9]: 40 µg/mL (≈ 0.347 mM)

COC(=O)c1ccc(O)cc1 [MP, Methylparabene, reference compound]
MIC ([1]; 78 h at 36° C.): 590 µg/mL (≈ 3.88 mM) | MIC mix [1, 10]: 390 µg/mL (≈ 2.56 mM) | ratio [MIC (single)/(MIC (mixture)]) ([1]; mixture pHBA/MP): 1.51 | MIC ([2]; 78 h at 36° C.): 390 µg/mL (≈ 2.56 mM) | MIC mix [2, 10]: 260 µg/mL (≈ 1.71 mM) | ratio [MIC (single)/(MIC (mixture)]) ([2]; mixture pHBA/MP): 1.50 | MIC ([3]; 18 h at 36° C.): 2000 µg/mL (≈ 13.1 mM) | MIC mix [3, 10]: 890 µg/mL (≈ 5.85 mM) | ratio [MIC (single)/(MIC (mixture)]) ([3]; mixture pHBA/MP): 2.25 | MIC ([4]; 48 h at 36° C.): 1330 µg/mL (≈ 8.74 mM) | MIC mix [4, 7]: <10 µg/mL | MIC mix [4, 10]: 890 µg/mL (≈ 5.85 mM) | ratio [MIC (single)/(MIC (mixture)]) ([4]; mixture pHBA/MI): >100 | ratio [MIC (single)/(MIC (mixture)]) ([4]; mixture pHBA/MP): 1.49 | MIC ([5]; 18 h at 36° C.): 890 µg/mL (≈ 5.85 mM) | MIC mix [5, 10]: 390 µg/mL (≈ 2.56 mM) | ratio [MIC (single)/(MIC (mixture)]) ([5]; mixture pHBA/MP): 2.28 | MIC ([6]; 18 h at 36° C.): 2000 µg/mL (≈ 13.1 mM) | MIC mix [6, 10]: 590 µg/mL (≈ 3.88 mM) | ratio [MIC (single)/(MIC (mixture)]) ([6]; mixture pHBA/MP): 3.39

NCc1ccc(O)cc1 [pHBA, p-Hydroxybenzylamine]
MIC ([1]; 78 h at 36° C.): 5270 µg/mL (≈ 42.8 mM) | MIC mix [1, 7]: 980 µg/mL (≈ 7.96 mM) | MIC mix [1, 10]: 1580 µg/mL (≈ 12.8 mM) | MIC mix [1, 11]: 2340 µg/mL (≈ 19 mM) | ratio [MIC (single)/(MIC (mixture)]) ([1]; mixture pHBA/MI): 5.38 | ratio [MIC (single)/(MIC (mixture)]) ([1]; mixture pHBA/MP): 3.34 | ratio [MIC (single)/(MIC (mixture)]) ([1]; mixture pHBA/PE): 2.25 | MIC ([2]; 78 h at 36° C.): 5270 µg/mL (≈ 42.8 mM) | MIC mix [2, 7]: 980 µg/mL (≈ 7.96 mM) | MIC mix [2, 10]: 1050 µg/mL (≈ 8.53 mM) | MIC mix [2, 11]: 2340 µg/mL (≈ 19 mM) | ratio [MIC (single)/(MIC (mixture)]) ([2]; mixture pHBA/MI): 5.38 | ratio [MIC (single)/(MIC (mixture)]) ([2]; mixture pHBA/MP): 5.02 | ratio [MIC (single)/(MIC (mixture)]) ([2]; mixture pHBA/PE): 2.25 | MIC ([3]; 18 h at 36° C.): 5270 µg/mL (≈ 42.8 mM) | MIC mix [3, 7]: 2200 µg/mL (≈ 17.9 mM) | MIC mix [3, 10]: 3560 µg/mL (≈ 28.9 mM) | MIC mix [3, 11]: 7900 µg/mL (≈ 64.1 mM) | ratio [MIC (single)/(MIC (mixture)]) ([3]; mixture pHBA/MI): 2.4 | ratio [MIC (single)/(MIC (mixture)]) ([3]; mixture pHBA/MP): 1.48 | ratio [MIC (single)/(MIC (mixture)]) ([3]; mixture pHBA/PE): 0.67 | MIC ([4]; 48 h at 36° C.): 7900 µg/mL (≈ 64.1 mM) | MIC mix [4, 7]: 650 µg/mL (≈ 5.28 mM) | MIC mix [4, 10]: 3560 µg/mL (≈ 28.9 mM) | MIC mix [4, 11]: 5270 µg/mL (≈ 42.8 mM) | ratio [MIC (single)/(MIC (mixture)]) ([4]; mixture pHBA/MI): 12.15 | ratio [MIC (single)/(MIC (mixture)]) ([4]; mixture pHBA/MP): 2.22 | ratio [MIC (single)/(MIC (mixture)]) ([4]; mixture pHBA/PE): 1.50 | MIC ([5]; 18 h at 36° C.): 5270 µg/mL (≈ 42.8 mM) | MIC mix [5, 7]: 980 µg/mL (≈ 7.96 mM) | MIC mix [5, 10]: 1580 µg/mL (≈ 12.8 mM) | MIC mix [5, 11]: 3510 µg/mL (≈ 28.5 mM) | ratio [MIC (single)/(MIC (mixture)]) ([5]; mixture pHBA/MI): 5.38 | ratio [MIC (single)/(MIC (mixture)]) ([5]; mixture pHBA/MP): 3.34 | ratio [MIC (single)/(MIC (mixture)]) ([5]; mixture pHBA/PE): 1.50 | MIC ([6]; 18 h at 36° C.): 5270 µg/mL (≈ 42.8 mM) | MIC mix [6, 7]: 650 µg/mL (≈ 5.28 mM) | MIC mix [6, 10]: 2400 µg/mL (≈ 19.5 mM) | MIC mix [6, 11]: 3510 µg/mL (≈ 28.5 mM) | ratio [MIC (single)/(MIC (mixture)]) ([6]; mixture pHBA/MI): 8.11 | ratio [MIC (single)/(MIC (mixture)]) ([6]; mixture pHBA/MP): 2.20 | ratio [MIC (single)/(MIC (mixture)]) ([6]; mixture pHBA/PE): 1.50
